Results reported in article PMC4707675 (ACS infectious diseases, 2015).
Read-outs that look alike come from different tables or passages of the source.

How the values were obtained:
[1] = tested on: DHFR-overexpressing strain of Mtb (DHFR-oe); assay type: cell-based, Mycobacterium tuberculosis
[2] = tested on: DHFR-overexpressing strain of Mtb (DHFR-oe); conditions: ref Nixon et al.[15]; cited from earlier work

| SMILES | MIC90 DHFR-oe [1] [µM] | MIC90 DHFR-oe [2] [µM] |
| --- | --- | --- |
| N#Cc1ccc(Cn2ccc3c4c(N)nc(N)nc4ccc32)cc1 [PQD-1] | >2 | – |
| COc1cc(NCc2ccc3nc(N)nc(N)c3c2C)cc(OC)c1OC [Trimetrexate] | – | >100 |
| CC1(C)N=C(N)N=C(N)N1OCCCOc1cc(Cl)c(Cl)cc1Cl [WR99210] | 15 to 30 | – |
